According to patent US12686846B2, “Plant sweet and yeast MSF transporter capable of transporting different sugars simultaneously” (THE BOARD OF TRUSTEES OF THE UNIVERSITY OF ILLINOIS, priority 2020, dated 2026):

Biological target: T1, Saccharomyces cerevisiae ScGal2 (Gal2) transporter, SEQ ID NO:32 (Saccharomyces cerevisiae, UniProt P13181)
T1 construct: expressed in transfected cells; host or cells: S. cerevisiae SR8D8 (SR8 with HXT1-7 and GAL2 deleted), plasmid p42K-GPD1p-CYC1t
T1 sequence (P13181 1-574): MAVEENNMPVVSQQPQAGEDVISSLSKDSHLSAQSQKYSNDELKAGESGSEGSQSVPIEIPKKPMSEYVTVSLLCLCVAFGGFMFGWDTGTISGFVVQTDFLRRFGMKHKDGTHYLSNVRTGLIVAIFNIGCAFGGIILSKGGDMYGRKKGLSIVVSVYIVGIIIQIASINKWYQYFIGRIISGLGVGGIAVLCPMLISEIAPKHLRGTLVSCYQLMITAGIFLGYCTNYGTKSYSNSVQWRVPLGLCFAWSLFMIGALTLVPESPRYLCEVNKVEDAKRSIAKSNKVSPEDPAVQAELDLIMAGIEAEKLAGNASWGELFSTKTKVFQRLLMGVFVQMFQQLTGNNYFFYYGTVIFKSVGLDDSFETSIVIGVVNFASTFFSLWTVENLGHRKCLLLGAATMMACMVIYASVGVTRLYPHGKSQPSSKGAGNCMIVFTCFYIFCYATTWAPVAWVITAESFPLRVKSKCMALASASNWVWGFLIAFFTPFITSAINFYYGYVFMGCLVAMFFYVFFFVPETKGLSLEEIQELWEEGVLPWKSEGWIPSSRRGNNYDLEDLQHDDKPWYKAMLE
Test: Inhibition of xylose uptake by glucose, SR8D8 expressing ScGal2
Assay type: cell-based
Conditions: in words
Experimental: Symbols: glucose (square), xylose (triangle up), DCW (circle), ethanol (triangle down), glycerol (diamond). […] Global curve fitting for Michaelis-Menten kinetics with competitive inhibition was applied to data of three independent measurements at each concentration.
SR8D8 containing the respective plasmid was grown on selective YPE medium to an OD600 of 1-1.5, harvested by centrifugation, and washed twice in ice-cold uptake buffer (100 mM potassium phosphate, pH 6.5). C14 labeled sugar uptake assay was done according to Boles and Oreb. Radioactivity was analyzed in a Beckman-Coulter LS6500 multi-purpose liquid scintillation counter (Beckman-Coulter, CA, USA).
Sugar solutions contained 0.135-0.608 μCi of D-[U-^14C]-glucose (290-300 mCi/mmol) or D-[1-^14C]-xylose (55 mCi/mmol) (PerkinElmer, MA, USA). Calculation of Km (Michaelis constant), Vmax (maximal initial uptake velocity), and K (inhibitor constant for competitive inhibition) was done by nonlinear regression analysis and global curve fitting in Prism 7 (GraphPad Software) with values of three independent measurements.

OC[C@H]1OC(O)[C@H](O)[C@@H](O)[C@@H]1O (some centres unmarked) [Glucose]
inhibition of xylose transport by glucose (25 mM glucose): complete xylose inhibition | inhibition of xylose transport by glucose (25 mM or 100 mM glucose): completely inhibited
